≈ marks a conversion by molar mass, not a printed value.
Tests used:
[1] = biological target: T1, Tyrosine-protein phosphatase non-receptor type 1 (Homo sapiens, UniProt P18031); assay: Inhibition of human PTP1B
T1 sequence (P18031 whole entry): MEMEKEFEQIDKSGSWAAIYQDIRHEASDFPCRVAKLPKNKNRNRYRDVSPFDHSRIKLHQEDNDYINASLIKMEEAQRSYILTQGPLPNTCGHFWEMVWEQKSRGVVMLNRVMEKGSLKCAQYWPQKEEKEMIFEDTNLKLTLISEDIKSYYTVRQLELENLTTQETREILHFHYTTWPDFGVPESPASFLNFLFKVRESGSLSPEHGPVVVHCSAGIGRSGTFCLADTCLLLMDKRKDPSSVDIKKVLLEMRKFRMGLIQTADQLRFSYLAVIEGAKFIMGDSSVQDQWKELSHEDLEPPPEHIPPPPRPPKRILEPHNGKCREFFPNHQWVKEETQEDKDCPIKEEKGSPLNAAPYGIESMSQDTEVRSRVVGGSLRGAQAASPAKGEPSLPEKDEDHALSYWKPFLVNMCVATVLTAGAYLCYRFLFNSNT

[2] = biological target: T2, M-phase inducer phosphatase 2 (Homo sapiens, UniProt P30305); assay: Inhibition of human CDC25B
T2 sequence (P30305 whole entry): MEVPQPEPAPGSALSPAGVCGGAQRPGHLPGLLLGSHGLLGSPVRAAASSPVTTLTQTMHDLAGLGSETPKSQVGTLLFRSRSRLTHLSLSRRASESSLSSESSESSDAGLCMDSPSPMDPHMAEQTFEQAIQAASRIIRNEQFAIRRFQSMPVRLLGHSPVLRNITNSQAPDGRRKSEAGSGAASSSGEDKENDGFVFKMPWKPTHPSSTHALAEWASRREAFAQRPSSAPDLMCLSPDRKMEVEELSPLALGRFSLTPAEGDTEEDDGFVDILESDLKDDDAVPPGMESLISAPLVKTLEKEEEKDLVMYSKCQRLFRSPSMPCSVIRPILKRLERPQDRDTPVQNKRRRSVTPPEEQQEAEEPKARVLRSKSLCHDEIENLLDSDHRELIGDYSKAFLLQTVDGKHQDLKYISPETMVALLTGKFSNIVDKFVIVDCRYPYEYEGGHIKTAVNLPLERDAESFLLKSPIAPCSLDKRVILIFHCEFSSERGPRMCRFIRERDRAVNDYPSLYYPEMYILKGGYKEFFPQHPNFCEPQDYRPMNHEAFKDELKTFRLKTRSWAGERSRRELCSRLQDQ

[3] = biological target: Receptor-type tyrosine-protein phosphatase F (Homo sapiens, UniProt P10586); assay: Inhibition of human LAR
Sequence of Receptor-type tyrosine-protein phosphatase F (P10586 whole entry): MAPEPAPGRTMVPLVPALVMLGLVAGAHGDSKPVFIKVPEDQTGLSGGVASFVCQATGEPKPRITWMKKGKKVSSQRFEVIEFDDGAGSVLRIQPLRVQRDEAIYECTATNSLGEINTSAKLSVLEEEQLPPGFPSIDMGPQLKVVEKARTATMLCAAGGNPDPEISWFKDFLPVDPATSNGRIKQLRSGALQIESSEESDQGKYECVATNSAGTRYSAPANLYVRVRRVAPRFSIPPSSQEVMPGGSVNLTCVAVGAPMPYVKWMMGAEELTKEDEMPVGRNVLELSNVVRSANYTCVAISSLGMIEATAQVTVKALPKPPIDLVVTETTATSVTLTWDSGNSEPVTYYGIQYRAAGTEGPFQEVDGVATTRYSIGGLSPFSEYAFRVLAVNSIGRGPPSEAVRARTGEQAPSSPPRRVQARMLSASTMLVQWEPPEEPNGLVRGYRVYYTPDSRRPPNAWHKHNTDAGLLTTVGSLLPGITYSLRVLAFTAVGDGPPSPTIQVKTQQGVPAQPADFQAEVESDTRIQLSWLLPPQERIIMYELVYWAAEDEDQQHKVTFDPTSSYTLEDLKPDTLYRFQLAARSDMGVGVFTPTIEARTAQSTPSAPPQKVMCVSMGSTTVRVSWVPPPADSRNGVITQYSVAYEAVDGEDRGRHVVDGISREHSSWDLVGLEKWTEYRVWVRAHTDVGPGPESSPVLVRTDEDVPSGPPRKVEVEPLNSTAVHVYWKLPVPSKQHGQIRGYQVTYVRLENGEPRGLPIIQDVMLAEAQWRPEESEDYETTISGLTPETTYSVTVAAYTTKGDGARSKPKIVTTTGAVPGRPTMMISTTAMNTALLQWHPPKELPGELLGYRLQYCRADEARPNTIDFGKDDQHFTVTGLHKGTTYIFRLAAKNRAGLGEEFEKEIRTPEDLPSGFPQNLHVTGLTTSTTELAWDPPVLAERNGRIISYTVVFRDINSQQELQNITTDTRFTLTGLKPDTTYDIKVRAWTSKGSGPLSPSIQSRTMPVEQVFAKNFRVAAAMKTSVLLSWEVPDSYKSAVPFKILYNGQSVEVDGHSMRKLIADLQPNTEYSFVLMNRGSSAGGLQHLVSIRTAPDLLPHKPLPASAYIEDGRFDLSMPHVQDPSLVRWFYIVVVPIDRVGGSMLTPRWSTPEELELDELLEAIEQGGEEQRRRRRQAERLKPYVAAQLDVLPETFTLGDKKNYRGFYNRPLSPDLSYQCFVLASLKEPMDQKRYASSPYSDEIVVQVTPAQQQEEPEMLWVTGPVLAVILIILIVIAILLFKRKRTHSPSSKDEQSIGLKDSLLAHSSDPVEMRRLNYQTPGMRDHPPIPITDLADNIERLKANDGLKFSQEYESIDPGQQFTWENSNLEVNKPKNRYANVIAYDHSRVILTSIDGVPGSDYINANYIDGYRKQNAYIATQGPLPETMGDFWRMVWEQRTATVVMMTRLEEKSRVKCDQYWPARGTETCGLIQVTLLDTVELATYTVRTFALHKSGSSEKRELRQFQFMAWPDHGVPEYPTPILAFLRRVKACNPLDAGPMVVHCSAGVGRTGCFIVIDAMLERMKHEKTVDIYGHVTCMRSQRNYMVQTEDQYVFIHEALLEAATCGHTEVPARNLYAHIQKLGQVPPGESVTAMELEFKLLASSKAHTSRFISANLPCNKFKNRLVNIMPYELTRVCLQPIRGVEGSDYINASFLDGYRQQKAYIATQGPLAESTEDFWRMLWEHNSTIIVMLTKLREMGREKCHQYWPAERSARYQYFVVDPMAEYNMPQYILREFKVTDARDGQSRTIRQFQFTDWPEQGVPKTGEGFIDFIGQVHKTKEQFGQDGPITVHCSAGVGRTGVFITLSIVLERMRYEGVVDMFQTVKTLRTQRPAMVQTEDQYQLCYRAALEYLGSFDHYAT

[4] = biological target: Receptor-type tyrosine-protein phosphatase S (Homo sapiens, UniProt Q13332); assay: Inhibition of human PTPsigma
Sequence of Receptor-type tyrosine-protein phosphatase S (Q13332 whole entry): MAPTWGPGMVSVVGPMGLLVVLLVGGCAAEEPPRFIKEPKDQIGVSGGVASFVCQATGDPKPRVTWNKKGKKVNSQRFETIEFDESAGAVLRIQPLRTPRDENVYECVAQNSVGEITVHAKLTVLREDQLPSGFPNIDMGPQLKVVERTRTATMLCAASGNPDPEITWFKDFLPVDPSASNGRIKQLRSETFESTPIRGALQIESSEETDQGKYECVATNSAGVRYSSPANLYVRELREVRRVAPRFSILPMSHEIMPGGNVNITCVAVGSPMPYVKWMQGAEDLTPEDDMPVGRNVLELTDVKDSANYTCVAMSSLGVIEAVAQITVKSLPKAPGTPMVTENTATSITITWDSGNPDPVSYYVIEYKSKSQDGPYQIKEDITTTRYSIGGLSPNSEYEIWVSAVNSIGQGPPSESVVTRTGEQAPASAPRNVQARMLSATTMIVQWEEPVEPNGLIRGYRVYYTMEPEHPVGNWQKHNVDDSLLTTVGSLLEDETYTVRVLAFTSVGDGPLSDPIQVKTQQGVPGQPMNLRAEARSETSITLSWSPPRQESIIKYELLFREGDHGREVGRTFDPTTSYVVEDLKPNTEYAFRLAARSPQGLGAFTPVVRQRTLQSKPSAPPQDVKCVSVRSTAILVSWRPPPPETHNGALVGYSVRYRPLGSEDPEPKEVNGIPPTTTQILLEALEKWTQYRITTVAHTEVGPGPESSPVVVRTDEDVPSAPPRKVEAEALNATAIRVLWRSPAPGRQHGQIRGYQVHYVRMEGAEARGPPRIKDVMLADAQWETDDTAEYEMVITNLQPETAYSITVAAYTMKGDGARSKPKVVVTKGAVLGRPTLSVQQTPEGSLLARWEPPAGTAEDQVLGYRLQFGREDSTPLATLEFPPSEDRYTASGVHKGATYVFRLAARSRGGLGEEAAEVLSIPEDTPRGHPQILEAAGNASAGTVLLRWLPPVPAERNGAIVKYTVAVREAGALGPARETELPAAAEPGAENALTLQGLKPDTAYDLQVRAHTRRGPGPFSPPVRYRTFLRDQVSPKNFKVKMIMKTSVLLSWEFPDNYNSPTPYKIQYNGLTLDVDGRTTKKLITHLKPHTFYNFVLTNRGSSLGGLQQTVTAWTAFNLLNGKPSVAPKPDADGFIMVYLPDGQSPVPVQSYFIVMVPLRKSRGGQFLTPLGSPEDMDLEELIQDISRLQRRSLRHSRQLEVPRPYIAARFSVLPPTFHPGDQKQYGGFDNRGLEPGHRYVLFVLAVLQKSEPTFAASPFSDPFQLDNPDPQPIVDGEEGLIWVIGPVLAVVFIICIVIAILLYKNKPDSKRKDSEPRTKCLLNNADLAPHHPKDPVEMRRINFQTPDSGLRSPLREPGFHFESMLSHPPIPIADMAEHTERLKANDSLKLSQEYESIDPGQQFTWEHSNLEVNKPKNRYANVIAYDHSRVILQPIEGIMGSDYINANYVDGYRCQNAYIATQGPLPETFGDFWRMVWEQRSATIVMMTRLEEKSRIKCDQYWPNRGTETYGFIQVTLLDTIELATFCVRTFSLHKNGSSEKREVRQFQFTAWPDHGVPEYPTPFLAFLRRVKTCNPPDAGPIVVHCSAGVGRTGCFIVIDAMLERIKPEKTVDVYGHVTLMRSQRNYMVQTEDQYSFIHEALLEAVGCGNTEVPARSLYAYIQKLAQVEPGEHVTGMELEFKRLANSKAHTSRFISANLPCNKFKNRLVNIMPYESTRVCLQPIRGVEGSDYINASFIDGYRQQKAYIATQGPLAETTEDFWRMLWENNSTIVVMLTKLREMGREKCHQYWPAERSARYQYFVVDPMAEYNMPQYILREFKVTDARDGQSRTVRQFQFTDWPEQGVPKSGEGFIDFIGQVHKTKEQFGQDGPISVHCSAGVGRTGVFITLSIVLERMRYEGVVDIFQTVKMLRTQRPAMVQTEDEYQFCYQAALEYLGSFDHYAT

[5] = biological target: Dual specificity protein phosphatase 3 (Homo sapiens, UniProt P51452); assay: Inhibition of human VHR
Sequence of Dual specificity protein phosphatase 3 (P51452 whole entry): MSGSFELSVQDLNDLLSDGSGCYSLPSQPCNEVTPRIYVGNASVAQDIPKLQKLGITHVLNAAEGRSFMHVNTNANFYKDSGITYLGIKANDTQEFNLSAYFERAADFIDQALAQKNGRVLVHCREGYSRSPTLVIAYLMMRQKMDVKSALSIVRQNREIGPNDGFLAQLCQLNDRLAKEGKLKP

[6] = tested on: NCI-H1975; assay: Cytotoxicity against human NCI-H1975 cells assessed as cell growth inhibition by CCK8 assay
[7] = tested on: HepG2; assay: Cytotoxicity against human HepG2 cells assessed as cell growth inhibition by CCK8 assay
[8] = tested on: Staphylococcus aureus; assay: Antibacterial activity against Staphylococcus aureus ATCC 6538 assessed as bacterial growth inhibition by broth microdilution method; assay type: functional
[9] = tested on: Staphylococcus aureus; assay: Antibacterial activity against methicillin-resistant Staphylococcus aureus SC41993 assessed as bacterial growth inhibition by broth microdilution method; assay type: functional
[10] = tested on: Escherichia coli; assay: Antibacterial activity against Escherichia coli ATCC 25922 assessed as bacterial growth inhibition by broth microdilution method; assay type: functional
[11] = tested on: Bacillus subtilis; assay: Antibacterial activity against Bacillus subtilis BS01 assessed as bacterial growth inhibition by broth microdilution method; assay type: functional
[12] = tested on: Streptococcus agalactiae; assay: Antibacterial activity against Streptococcus agalactiae ATCC 13813 assessed as bacterial growth inhibition by broth microdilution method; assay type: functional
[13] = tested on: Bacillus amyloliquefaciens; assay: Antibacterial activity against Bacillus amyloliquefaciens GDMCC 60233 assessed as bacterial growth inhibition by broth microdilution method; assay type: functional
[14] = tested on: Streptococcus iniae; assay: Antibacterial activity against Streptococcus iniae SC41992 assessed as bacterial growth inhibition by broth microdilution method; assay type: functional

CC1=C[C@@]2(C)[C@@H]3C(=O)[C@@]45C(=O)N[C@@](O)(Cc6ccc(cc6)O[C@@H]6[C@H]7[C@@H](C[C@H](CO)C[C@@H]7C)[C@H]1[C@H]63)[C@H]4CC=C(C)[C@@H]25
IC50 [1]: > 200 µM | IC50 [2]: > 200 µM | IC50 [3]: > 200 µM | IC50 [4]: > 200 µM | IC50 [5]: > 200 µM | IC50 [6]: 58 µM | IC50 [7]: > 80 µM | MIC [8]: > 100 µg/mL | MIC [9]: > 100 µg/mL | MIC [10]: 100 µg/mL (≈ 184 µM) | MIC [11]: 100 µg/mL (≈ 184 µM) | MIC [12]: > 100 µg/mL | MIC [13]: > 100 µg/mL | MIC [14]: 100 µg/mL (≈ 184 µM)

Reference: ChEMBL document CHEMBL5385931, “Microascones, Decahydrofluorene-Class Alkaloids from the Marine-Derived Fungus Microascus sp. SCSIO 41821” (J Nat Prod, 2024)
